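Cultured in 96-well plates, cells were exposed to test compound for 48 hours across five concentrations. GI50 = concentration required for 50% inhibition of growth. At the TGI there is no net growth.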
Tests used:
Assay in all cases: DTP human tumour cell line panel, 48 h
786-0 renal = test system: 786-0 renal
A498 renal = test system: A498 renal
A549 NSCLC = test system: A549 NSCLC
ACHN renal = test system: ACHN renal
BT-549 breast = test system: BT-549 breast
CAKI-1 renal = test system: CAKI-1 renal
CCRF-CEM leukemia = test system: CCRF-CEM leukemia
COLO 205 colon = test system: COLO 205 colon
DU-145 prostate = test system: DU-145 prostate
EKVX NSCLC = test system: EKVX NSCLC
HCC-2998 colon = test system: HCC-2998 colon
HCT-116 colon = test system: HCT-116 colon
HCT-15 colon = test system: HCT-15 colon
HL-60(TB) leukemia = test system: HL-60(TB) leukemia
HOP-62 NSCLC = test system: HOP-62 NSCLC
HOP-92 NSCLC = test system: HOP-92 NSCLC
HS 578T breast = test system: HS 578T breast
HT29 colon = test system: HT29 colon
IGROV1 ovarian = test system: IGROV1 ovarian
K-562 leukemia = test system: K-562 leukemia
KM12 colon = test system: KM12 colon
LOX IMVI melanoma = test system: LOX IMVI melanoma
M14 melanoma = test system: M14 melanoma
MALME-3M melanoma = test system: MALME-3M melanoma
MCF7 breast = test system: MCF7 breast
MDA-MB-231 breast = test system: MDA-MB-231 breast
MDA-MB-435 = test system: MDA-MB-435
MOLT-4 leukemia = test system: MOLT-4 leukemia
NCI-H226 lung = test system: NCI-H226 lung
NCI-H23 lung = test system: NCI-H23 lung
NCI-H460 lung = test system: NCI-H460 lung
NCI-H522 lung = test system: NCI-H522 lung
NCI/ADR-RES ovarian = test system: NCI/ADR-RES ovarian
OVCAR-3 ovarian = test system: OVCAR-3 ovarian
OVCAR-4 ovarian = test system: OVCAR-4 ovarian
OVCAR-5 ovarian = test system: OVCAR-5 ovarian
OVCAR-8 ovarian = test system: OVCAR-8 ovarian
PC-3 prostate = test system: PC-3 prostate
RPMI-8226 leukemia = test system: RPMI-8226 leukemia
RXF 393 renal = test system: RXF 393 renal
SF-268 CNS = test system: SF-268 CNS
SF-295 CNS = test system: SF-295 CNS
SF-539 CNS = test system: SF-539 CNS
SK-MEL-2 melanoma = test system: SK-MEL-2 melanoma
SK-MEL-28 melanoma = test system: SK-MEL-28 melanoma
SK-MEL-5 melanoma = test system: SK-MEL-5 melanoma
SK-OV-3 ovarian = test system: SK-OV-3 ovarian
SN12C renal = test system: SN12C renal
SNB-19 CNS = test system: SNB-19 CNS
SNB-75 CNS = test system: SNB-75 CNS
SR leukemia = test system: SR leukemia
SW-620 colon = test system: SW-620 colon
T-47D breast = test system: T-47D breast
TK-10 renal = test system: TK-10 renal
U251 CNS = test system: U251 CNS
UACC-257 melanoma = test system: UACC-257 melanoma
UACC-62 melanoma = test system: UACC-62 melanoma
UO-31 renal = test system: UO-31 renal
MDA-N = test system: MDA-N

CN=C(N)c1ccc(N=C(N)c2ccc(-c3ccc(C(N)=Nc4ccc(C(N)=NC)cc4)cc3)cc2)cc1
GI50 (786-0 renal): > 100 µM
TGI (786-0 renal): > 100 µM
GI50 (A498 renal): > 100 µM
TGI (A498 renal): > 100 µM
GI50 (A549 NSCLC): > 100 µM
TGI (A549 NSCLC): > 100 µM
GI50 (ACHN renal): > 100 µM
TGI (ACHN renal): > 100 µM
GI50 (BT-549 breast): > 100 µM
TGI (BT-549 breast): > 100 µM
GI50 (CAKI-1 renal): > 100 µM
TGI (CAKI-1 renal): > 100 µM
GI50 (CCRF-CEM leukemia): > 100 µM
TGI (CCRF-CEM leukemia): > 100 µM
GI50 (COLO 205 colon): 99.5 µM
TGI (COLO 205 colon): > 100 µM
GI50 (DU-145 prostate): 41.2 µM
TGI (DU-145 prostate): > 100 µM
GI50 (EKVX NSCLC): > 100 µM
TGI (EKVX NSCLC): > 100 µM
GI50 (HCC-2998 colon): > 100 µM
TGI (HCC-2998 colon): > 100 µM
GI50 (HCT-116 colon): 75.8 µM
TGI (HCT-116 colon): > 100 µM
GI50 (HCT-15 colon): > 100 µM
TGI (HCT-15 colon): > 100 µM
GI50 (HL-60(TB) leukemia): 58.3 µM
TGI (HL-60(TB) leukemia): > 100 µM
GI50 (HOP-62 NSCLC): > 100 µM
TGI (HOP-62 NSCLC): > 100 µM
GI50 (HOP-92 NSCLC): 84.5 µM
TGI (HOP-92 NSCLC): > 100 µM
GI50 (HS 578T breast): > 100 µM
TGI (HS 578T breast): > 100 µM
GI50 (HT29 colon): 62.8 µM
TGI (HT29 colon): > 100 µM
GI50 (IGROV1 ovarian): 38.6 µM
TGI (IGROV1 ovarian): > 100 µM
GI50 (K-562 leukemia): 89.5 µM
TGI (K-562 leukemia): > 100 µM
GI50 (KM12 colon): 61.9 µM
TGI (KM12 colon): > 100 µM
GI50 (LOX IMVI melanoma): 83 µM
TGI (LOX IMVI melanoma): > 100 µM
GI50 (M14 melanoma): 82.2 µM
TGI (M14 melanoma): > 100 µM
GI50 (MALME-3M melanoma): 25.5 µM
TGI (MALME-3M melanoma): 78.7 µM
GI50 (MCF7 breast): 19 µM
TGI (MCF7 breast): > 100 µM
GI50 (MDA-MB-231 breast): > 100 µM
TGI (MDA-MB-231 breast): > 100 µM
GI50 (MDA-MB-435): 59.2 µM
TGI (MDA-MB-435): > 100 µM
GI50 (MOLT-4 leukemia): > 100 µM
TGI (MOLT-4 leukemia): > 100 µM
GI50 (NCI-H226 lung): 55.9 µM
TGI (NCI-H226 lung): > 100 µM
GI50 (NCI-H23 lung): > 100 µM
TGI (NCI-H23 lung): > 100 µM
GI50 (NCI-H460 lung): 55.8 µM
TGI (NCI-H460 lung): > 100 µM
GI50 (NCI-H522 lung): 18.4 µM
TGI (NCI-H522 lung): > 100 µM
GI50 (NCI/ADR-RES ovarian): > 100 µM
TGI (NCI/ADR-RES ovarian): > 100 µM
GI50 (OVCAR-3 ovarian): > 100 µM
TGI (OVCAR-3 ovarian): > 100 µM
GI50 (OVCAR-4 ovarian): > 100 µM
TGI (OVCAR-4 ovarian): > 100 µM
GI50 (OVCAR-5 ovarian): > 100 µM
TGI (OVCAR-5 ovarian): > 100 µM
GI50 (OVCAR-8 ovarian): 52.1 µM
TGI (OVCAR-8 ovarian): > 100 µM
GI50 (PC-3 prostate): > 100 µM
TGI (PC-3 prostate): > 100 µM
GI50 (RPMI-8226 leukemia): 46.5 µM
TGI (RPMI-8226 leukemia): > 100 µM
GI50 (RXF 393 renal): 39.4 µM
TGI (RXF 393 renal): > 100 µM
GI50 (SF-268 CNS): > 100 µM
TGI (SF-268 CNS): > 100 µM
GI50 (SF-295 CNS): 41.1 µM
TGI (SF-295 CNS): > 100 µM
GI50 (SF-539 CNS): > 100 µM
TGI (SF-539 CNS): > 100 µM
GI50 (SK-MEL-2 melanoma): 35.1 µM
TGI (SK-MEL-2 melanoma): > 100 µM
GI50 (SK-MEL-28 melanoma): 41.8 µM
TGI (SK-MEL-28 melanoma): > 100 µM
GI50 (SK-MEL-5 melanoma): 33.6 µM
TGI (SK-MEL-5 melanoma): > 100 µM
GI50 (SK-OV-3 ovarian): > 100 µM
TGI (SK-OV-3 ovarian): > 100 µM
GI50 (SN12C renal): > 100 µM
TGI (SN12C renal): > 100 µM
GI50 (SNB-19 CNS): > 100 µM
TGI (SNB-19 CNS): > 100 µM
GI50 (SNB-75 CNS): > 100 µM
TGI (SNB-75 CNS): > 100 µM
GI50 (SR leukemia): > 100 µM
TGI (SR leukemia): > 100 µM
GI50 (SW-620 colon): > 100 µM
TGI (SW-620 colon): > 100 µM
GI50 (T-47D breast): 58.2 µM
TGI (T-47D breast): > 100 µM
GI50 (TK-10 renal): 35.9 µM
TGI (TK-10 renal): 97.1 µM
GI50 (U251 CNS): 55.5 µM
TGI (U251 CNS): > 100 µM
GI50 (UACC-257 melanoma): > 100 µM
TGI (UACC-257 melanoma): > 100 µM
GI50 (UACC-62 melanoma): 30.5 µM
TGI (UACC-62 melanoma): > 100 µM
GI50 (UO-31 renal): > 100 µM
TGI (UO-31 renal): > 100 µM

COc1ccc(C2=Nc3c(nc(OC)[nH]c3=O)NC(c3ccccc3)C2)cc1 (stereo unspecified)
TGI (786-0 renal): 93.6 µM
TGI (A498 renal): > 100 µM
TGI (A549 NSCLC): > 100 µM
TGI (ACHN renal): 83.5 µM
TGI (BT-549 breast): > 100 µM
TGI (CAKI-1 renal): > 100 µM
TGI (CCRF-CEM leukemia): > 100 µM
TGI (COLO 205 colon): 50.3 µM
TGI (DU-145 prostate): > 100 µM
TGI (EKVX NSCLC): > 100 µM
TGI (HCT-116 colon): > 100 µM
TGI (HL-60(TB) leukemia): 56.9 µM
TGI (HOP-62 NSCLC): > 100 µM
TGI (HOP-92 NSCLC): > 100 µM
TGI (HT29 colon): > 100 µM
TGI (IGROV1 ovarian): > 100 µM
TGI (K-562 leukemia): 73.1 µM
TGI (KM12 colon): 36.3 µM
TGI (LOX IMVI melanoma): 70.3 µM
TGI (M14 melanoma): > 100 µM
TGI (MALME-3M melanoma): > 100 µM
TGI (MCF7 breast): 68.2 µM
TGI (MDA-MB-231 breast): 53.4 µM
TGI (MDA-MB-435): > 100 µM
TGI (MDA-N): 64.5 µM
TGI (MOLT-4 leukemia): > 100 µM
TGI (NCI-H226 lung): > 100 µM
TGI (NCI-H23 lung): > 100 µM
TGI (NCI-H522 lung): > 100 µM
TGI (NCI/ADR-RES ovarian): > 100 µM
TGI (OVCAR-3 ovarian): > 100 µM
TGI (OVCAR-5 ovarian): > 100 µM
TGI (OVCAR-8 ovarian): 54.4 µM
TGI (PC-3 prostate): > 100 µM
TGI (RPMI-8226 leukemia): 91.5 µM
TGI (RXF 393 renal): 63.9 µM
TGI (SF-295 CNS): > 100 µM
TGI (SF-539 CNS): 94.1 µM
TGI (SK-MEL-2 melanoma): > 100 µM
TGI (SK-MEL-28 melanoma): 42.7 µM
TGI (SK-MEL-5 melanoma): 33.7 µM
TGI (SN12C renal): 62.6 µM
TGI (SNB-19 CNS): > 100 µM
TGI (SNB-75 CNS): 58.5 µM
TGI (SR leukemia): > 100 µM
TGI (SW-620 colon): 72.4 µM
TGI (U251 CNS): 65.6 µM
TGI (UACC-257 melanoma): > 100 µM
TGI (UACC-62 melanoma): > 100 µM
TGI (UO-31 renal): > 100 µM

Source: PubChem BioAssay (NCI)
